Reference: PMC7515950, “Physiologically based pharmacokinetic modeling to assess metabolic drug–drug interaction risks and inform the drug label for fedratinib” (Cancer Chemotherapy and Pharmacology, 2020)
Read-outs that look alike come from different tables or passages of the source.

Legend:
[1] = Human 14C mass balance and metabolic profiling (BEX12257, MEH0082); assay type: in vivo; conditions: for fa (fraction of absorbed dose): estimated from mass balance and metabolic profiling, BEX12257 and MEH0082; for CL renal: estimated from BEX12257, MEH0082 with CL/F of 33.3 L/h, read-out: CLR (renal clearance) (converted)
Description: The first-order absorption ka value was estimated to be ~0.22 h^-1 based on compartmental modeling of mean PK data obtained from healthy subjects given single doses of 500 mg fedratinib (see Table 1 in Supplemental Material SM 2). The fa value was estimated based on data obtained from the mass balance and metabolic profiling studies conducted in healthy subjects. By combining the estimated excretion percentages of the parent compound in urine, feces, and bile, the unabsorbed dose was estimated to be ~35% and thus fraction of absorption (fa) was estimated to be ~0.65 (see Figure 2 and “Excretion Parameters” subsection).
Following the normalization, excretion percentages of fedratinib were estimated to be ~5% and ~37% of the administered dose in urine and feces, respectively.

CYP3A4 [2] = biological target: T1, CYP3A4 (Homo sapiens, UniProt P08684); experiment: CYP reversible and mechanism-based inhibition in human liver microsomes (MIH0887), CYP3A4; assay type: in vitro ADME
T1 construct: from tissue; host or cells: human liver microsomes
Description: The CYP enzyme reverse inhibition and mechanism-based inhibition (MBI) parameters were estimated in the human liver microsome (HLM) incubation in vitro studies. The reported reversible inhibition parameter (i.e., apparent Ki) values for CYP2C8, CYP2C9, and CYP2D6, along with the MBI parameters (i.e., KI or Kapp and kinact) for CYP2C19 and CYP3A4, were supplied to the PBPK DDI model (see Table 2).

CYP3A4 [3] = experiment: CYP3A induction in primary human hepatocytes (IHH0014); assay type: in vitro ADME
Source text: The induction effect of fedratinib on CYP3A gene expression was identified using human hepatocytes in primary culture. The reported kinetic data, i.e., concentration-dependent fold induction of CYP3A mRNA levels, were fitted to estimate the Indmax and IndC50 values for fedratinib with calibration against the induction effect observed for the positive control compound rifampin [9].

OCT1 = biological target: T2, OCT1 (Homo sapiens, UniProt O15245); experiment: OCT1 inhibition, CHO-hOCT1 cells (TRI0013); assay type: in vitro ADME
T2 construct: expressed in transfected cells; host or cells: CHO^Fi-hOCT1
T2 sequence (O15245 1-554): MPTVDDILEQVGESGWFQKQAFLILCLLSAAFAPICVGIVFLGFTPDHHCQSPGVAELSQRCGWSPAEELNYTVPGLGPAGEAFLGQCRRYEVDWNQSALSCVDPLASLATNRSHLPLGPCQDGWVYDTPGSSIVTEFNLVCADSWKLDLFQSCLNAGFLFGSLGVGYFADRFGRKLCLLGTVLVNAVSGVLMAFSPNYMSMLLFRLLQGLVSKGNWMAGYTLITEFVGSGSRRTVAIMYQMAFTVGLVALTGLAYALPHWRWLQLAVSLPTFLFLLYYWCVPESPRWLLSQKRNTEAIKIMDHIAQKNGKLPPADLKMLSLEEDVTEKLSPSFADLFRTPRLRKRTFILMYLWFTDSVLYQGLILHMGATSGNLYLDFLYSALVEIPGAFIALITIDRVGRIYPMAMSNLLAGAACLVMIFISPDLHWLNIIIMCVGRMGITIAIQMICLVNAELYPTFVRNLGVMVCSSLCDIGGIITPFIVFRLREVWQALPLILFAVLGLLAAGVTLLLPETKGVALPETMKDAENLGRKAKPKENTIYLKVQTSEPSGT
Source text: (§1) The reported IC50 values were converted to Ki values using the Cheng-Prusoff equation [10]:
(§2) The transporter inhibition parameters (Ki) for fedratinib were derived from the experimentally determined IC50 values using the Cheng-Prusoff equation, i.e., Ki = IC50/(1+[S]/Km) with the substrate concentrations ([S]) reported in the experimental studies and the substrate Km values collected from literature, as summarized in Table 13.

[4] = design: method as in PMID 32248324; conditions: healthy subjects, observation, cited from earlier work; for AUC GM Ratio (90% CI): 300 mg single dose with vs without ketoconazole 200 mg BID, AUCinf
OATP1B3 = biological target: T3, OATP1B3 (Homo sapiens, UniProt Q9NPD5); experiment: OATP1B3 inhibition, HEK-hOATP1B3 cells (TRE0075); assay type: in vitro ADME; design: expressed in transfected cells; host or cells: HEK^TR-hOATP1B3
T3 sequence (Q9NPD5 1-702): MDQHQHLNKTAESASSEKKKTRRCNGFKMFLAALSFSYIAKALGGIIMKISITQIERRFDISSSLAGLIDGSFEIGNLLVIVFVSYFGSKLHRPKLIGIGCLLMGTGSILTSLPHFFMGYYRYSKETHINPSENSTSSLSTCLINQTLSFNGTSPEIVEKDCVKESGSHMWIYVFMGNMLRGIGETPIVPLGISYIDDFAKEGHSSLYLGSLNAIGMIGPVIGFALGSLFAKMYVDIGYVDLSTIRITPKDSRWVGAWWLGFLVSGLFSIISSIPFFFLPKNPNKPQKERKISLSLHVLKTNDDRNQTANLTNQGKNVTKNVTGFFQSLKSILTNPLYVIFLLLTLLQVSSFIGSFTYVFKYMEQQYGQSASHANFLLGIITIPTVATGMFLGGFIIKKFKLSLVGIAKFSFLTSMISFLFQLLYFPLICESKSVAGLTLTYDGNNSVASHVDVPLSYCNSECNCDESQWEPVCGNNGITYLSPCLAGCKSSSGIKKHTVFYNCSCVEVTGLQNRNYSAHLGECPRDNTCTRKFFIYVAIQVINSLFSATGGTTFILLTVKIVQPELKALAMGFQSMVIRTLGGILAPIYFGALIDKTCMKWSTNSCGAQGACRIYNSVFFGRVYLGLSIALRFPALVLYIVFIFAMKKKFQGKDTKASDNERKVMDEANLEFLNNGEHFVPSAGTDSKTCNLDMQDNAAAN
Source text: as §1, §2

[5] = human 14C-mass balance, over 0-192/240h
[6] = normalized by total recovered radioactivity
[7] = 300 mg single dose + ketoconazole 200 mg BID, GM
[8] = 300 mg single dose + ketoconazole 200 mg BID, Mean (SD)
[9] = 300 mg single dose alone, Mean (SD)

T1 sequence (P08684 2-503 limits assumed): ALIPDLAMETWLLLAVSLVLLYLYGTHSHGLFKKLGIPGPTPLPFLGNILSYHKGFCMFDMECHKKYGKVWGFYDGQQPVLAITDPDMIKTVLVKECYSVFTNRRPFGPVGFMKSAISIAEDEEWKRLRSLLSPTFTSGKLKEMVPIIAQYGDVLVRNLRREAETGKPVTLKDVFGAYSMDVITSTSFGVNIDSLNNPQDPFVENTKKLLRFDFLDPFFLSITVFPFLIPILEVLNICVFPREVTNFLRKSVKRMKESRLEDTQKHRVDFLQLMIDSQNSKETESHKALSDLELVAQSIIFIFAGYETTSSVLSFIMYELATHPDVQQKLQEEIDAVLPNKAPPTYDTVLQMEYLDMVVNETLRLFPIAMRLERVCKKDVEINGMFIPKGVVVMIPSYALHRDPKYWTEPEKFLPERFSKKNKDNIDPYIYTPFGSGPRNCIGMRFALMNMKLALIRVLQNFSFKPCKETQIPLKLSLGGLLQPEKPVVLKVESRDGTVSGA

unabsorbed dose ([1]; estimated from excretion of parent in urine, feces and bile): ~ 35%
fa (fraction of absorbed dose) [1]: 0.65
fa (fraction of absorbed dose) ([1]; listed as fedratinib): 0.650
parent compound in feces, percent of administered dose [1, 5]: 23.3%
parent compound in urine, percent of administered dose [1, 5]: 2.9%
blood plasma ratio ([1]; human, blood and plasma, oral, Study BEX12257, read-out: B/P (blood/plasma concentration ratio)): 0.7
CL renal ([1]; human, in vivo, oral): ~27.8 mL/min
CL renal ([1]; human, urine, oral): 27.8 mL/min
excretion percentage of fedratinib in feces, normalized [1, 6]: ~ 37%
excretion percentage of fedratinib in urine, normalized [1, 6]: ~ 5%
total percent activity of administered dose ([1]; over 0-192/240h): 62.7%
Ki (CYP3A4 [2]; HLM, assuming Ki = IC50/2): 9.55 µM
CYP3A4 KI or Kapp (CYP3A4 [2]; HLM, mechanism-based inhibition): 1.57 µM
CYP3A4 KI or Kapp (CYP3A4 [2]; HLM, mechanism-based inhibition, listed as fedratinib): 1.570 µM
kinact (CYP3A4 [2]; human, human liver microsomes, HLM, mechanism-based inhibition): 0.000717 s⁻¹
IC50 (CYP3A4 [2]; midazolam as substrate, absence of NADPH during pre-incubation, read-out: CYP3A IC50): 19.1 µM
CYP3A4 Ind max (CYP3A4 [3]; Simcyp input): 78.000
EC50 (CYP3A4 [3]; human, human hepatocytes in primary culture, CYP3A mRNA, fitted, calibrated against rifampin, read-out: CYP3A4 IndC50): 5.3 µM
CYP3A Indmax (CYP3A4 [3]; maximal fold induction over vehicle, CYP3A mRNA, calibrated against rifampin): 78.0
Ki (OCT1; from IC50 by Cheng-Prusoff, probe TEA): 5.59 µM
IC50 (OCT1; probe TEA 25 μM): 6.06 µM
Ki (OATP1B3; from IC50 by Cheng-Prusoff, probe CCK8): 8.4 µM
IC50 (OATP1B3; probe CCK8 0.5 μM): 9.51 µM
SMILES: Cc1cnc(Nc2ccc(OCCN3CCCC3)cc2)nc1Nc1cccc(S(=O)(=O)NC(C)(C)C)c1 [Fedratinib]
AUC (AUCinf) [4, 7]: 25000 ng·h/mL
Cmax [4, 7]: 741 ng/mL
AUC (AUCinf) [4, 8]: 26,800 (10,600) ng/mL·h
Cmax [4, 8]: 812 (374) ng/mL
AUC (AUCinf) ([4]; 300 mg single dose alone, GM): 6460 ng·h/mL
Cmax ([4]; 300 mg single dose alone, GM): 379 ng/mL
AUC (AUCinf) [4, 9]: 7440 (4060) ng/mL·h
Cmax [4, 9]: 444 (262) ng/mL
AUC GM Ratio (90% CI) [4]: 3.06 (2.46–3.80)
AUC GM Ratio (90% CI) ([4]; listed as fedratinib): 3.06
